Measured values taken from the supplement of paper PMC10331698.
± gives the standard deviation of the averaged measurements.

Columns and labels:
Experiment in all cases: level (log10 ratio to DMSO vehicle control); higher = higher biomarker level / cell amount than vehicle control
Perfluoropinacol = compound: OC(C(F)(F)F)(C(F)(F)F)C(O)(C(F)(F)F)C(F)(F)F [Perfluoropinacol]; details: in DMSO
Procedure: (§1)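 BioMAP Diversity Plus panel of 12 human primary cell co-culture systems (3C, 4H, LPS, SAg, BT, BF4T, BE3C, CASM3C, HDF3CGF, KF3CT, MyoF, Mphg). Compounds were added 1 h before stimulation and left for 24 h (MyoF 48 h; BT 72 h for soluble read-outs or 6 d for IgG). Biomarkers were read by ELISA, cytotoxicity by SRB, PBMC viability and proliferation by Alamar Blue. Each well value was divided by the mean of 8 DMSO control wells on the same plate and log10 transformed; duplicate blinded samples were tested at 4 concentrations.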

[1] = compound: O=C(CC(=O)C(F)(F)C(F)(F)C(F)(F)F)c1cccs1 [(Perfluorobutyryl)-2-thenoylmethane]; details: in DMSO
Procedure: as §1

[2] = compound: C=CC(=O)OCC(F)(F)C(F)(F)C(F)(F)C(F)(F)C(F)(F)C(F)(F)C(F)(F)C(F)F [1H,1H,9H-Perfluorononyl acrylate]; details: in DMSO
Procedure: as §1

[3] = compound: C=CC(=O)OCCC(F)(F)C(F)(F)C(F)(F)C(F)(F)C(F)(F)C(F)(F)C(F)(F)C(F)(F)F [8:2 Fluorotelomer acrylate]; details: in DMSO
Procedure: as §1

[4] = compound: O=C(O)C(F)(F)C(F)(F)C(F)(F)C(F)(F)C(F)(F)C(F)(F)C(F)(F)F [Ammonium perfluorooctanoate]; details: in DMSO
Procedure: as §1

[5] = compound: FC(F)(I)C(F)(F)C(F)(F)C(F)(F)C(F)(F)C(F)(F)I [1,6-Diiodoperfluorohexane]; details: 6700 nM; in DMSO
Procedure: as §1

[6] = compound: O=P(O)(O)CCC(F)(F)C(F)(F)C(F)(F)C(F)(F)C(F)(F)C(F)(F)F [2-(Perfluorohexyl)ethylphosphonic acid]; details: in DMSO
Procedure: as §1

[7] = compound: C=CC(=O)OCC(F)(F)C(F)(F)C(F)(F)C(F)(F)COC(=O)C=C [1H,1H,6H,6H-Perfluorohexane-1,6-diol diacrylate]; details: 6700 nM; in DMSO
Procedure: as §1

Test System	level (log10) (Perfluoropinacol; 6700 nM)	level (log10) (Perfluoropinacol; 20000 nM)	level (log10) ([1]; 6700 nM)	level (log10) ([1]; 20000 nM)	level (log10) ([2]; 6700 nM)	level (log10) ([2]; 20000 nM)	level (log10) ([2]; 60000 nM)	level (log10) ([3]; 6700 nM)	level (log10) ([3]; 20000 nM)	level (log10) ([3]; 60000 nM)	level (log10) ([4]; 6700 nM)	level (log10) ([4]; 20000 nM)	level (log10) ([4]; 60000 nM)	level (log10) [5]	level (log10) ([6]; 6700 nM)	level (log10) ([6]; 20000 nM)	level (log10) ([6]; 60000 nM)	level (log10) [7]
KF3CT:uPA	0.0065 ± 0.035	0.019 ± 0.021	0.021 ± 0.0014	0.0195 ± 0.005	-0.0285 ± 0.012	-0.005 ± 0.025	-0.0395 ± 0.013	0.003 ± 0.013	-0.0165 ± 0.037	-0.004 ± 0.0014	0.0125 ± 0.012	0.006 ± 0.017	0.001 ± 0.013	-0.002	0.007 ± 0.0057	0.013 ± 0.011	0.015 ± 0.02	-0.057 ± 0.0057
MyoF:Collagen III	-0.0405 ± 0.011	-0.136 ± 0.0014	-0.059 ± 0.018	-0.141 ± 0.0078	0.0015 ± 0.005	-0.029 ± 0.011	-0.102 ± 0.0014	-0.0105 ± 0.0078	-0.019 ± 0.0085	-0.03 ± 0.0028	0.0015 ± 0.00071	-0.0095 ± 0.0064	-0.0225 ± 0.0021	-0.527	0.003 ± 0.0042	0.009 ± 0.0014	-0.009 ± 0.031	-0.037 ± 0.045
3C:CD106/VCAM-1	-0.006 ± 0.02	-0.0385 ± 0.018	-0.027 ± 0.0071	-0.089 ± 0.0099	-0.03	-0.022 ± 0.0057	-0.042 ± 0.02	-0.0185 ± 0.015	-0.027 ± 0.041	-0.024 ± 0.05	0.004 ± 0.03	-0.0025 ± 0.03	0.019 ± 0.041	-0.043	-0.012 ± 0.03	-0.004 ± 0.025	0.0055 ± 0.061	-0.058 ± 0.0071
HDF3CGF:SRB	-0.027 ± 0.0042	-0.0055 ± 0.039	0.0935 ± 0.005	0.0145 ± 0.005	-0.017 ± 0.059	-0.011 ± 0.072	-0.0635 ± 0.079	-0.02 ± 0.0071	-0.0305 ± 0.037	0.003 ± 0.0014	0.057 ± 0.055	0.078 ± 0.0099	0.0945 ± 0.047	-0.644	-0.025 ± 0.045	0.0355 ± 0.029	0.001 ± 0.05	-0.291 ± 0.028
MyoF:CD106/VCAM-1	-0.013 ± 0.011	-0.042 ± 0.0085	-0.0225 ± 0.039	-0.0315 ± 0.013	-0.0025 ± 0.0035	-0.032 ± 0.0071	-0.163 ± 0.0057	-0.012 ± 0.0071	-0.0335 ± 0.0078	-0.027 ± 0.023	-0.011 ± 0.016	-0.017 ± 0.0085	-0.017 ± 0.0057	-0.373	0.0025 ± 0.011	0.01 ± 0.0014	-0.001	-0.219 ± 0.035
CASM3C:CCL2/MCP-1	0.0185 ± 0.013	0.096 ± 0.017	0.039 ± 0.011	-0.017 ± 0.011	-0.0125 ± 0.0035	-0.0095 ± 0.0092	-0.0075 ± 0.018	-0.0085 ± 0.0021	-0.012 ± 0.016	0.0085 ± 0.032	0.008 ± 0.017	-0.004 ± 0.0014	0.051 ± 0.033	-0.006	-0.009 ± 0.0028	-0.0145 ± 0.013	-0.003 ± 0.033	-0.0195 ± 0.0064
BE3C:uPA	-0.0055 ± 0.005	-0.042 ± 0.011	0.0235 ± 0.00071	0.0095 ± 0.022	-0.0335 ± 0.0092	0.0015 ± 0.0092	-0.0195 ± 0.0035	-0.0175 ± 0.005	-0.008 ± 0.0028	-0.001 ± 0.017	0.002 ± 0.0071	-0.002 ± 0.0042	0.018 ± 0.0085	-0.002	-0.016 ± 0.0099	-0.004 ± 0.0071	0.0075 ± 0.012	-0.02 ± 0.014
lMphg:IL-1alpha	0.103 ± 0.021	0.149 ± 0.067	0.0035 ± 0.0035	0.0395 ± 0.04	0.006 ± 0.038	-0.0025 ± 0.054	0.0195 ± 0.063	-0.012	-0.007 ± 0.021	0.035 ± 0.059	0.0005 ± 0.026	0.0005 ± 0.0064	0.004 ± 0.014	0.024	-0.0265 ± 0.021	-0.029 ± 0.024	0.0075 ± 0.084	0.0245 ± 0.057
KF3CT:CCL2/MCP-1	0.0955 ± 0.013	0.211 ± 0.024	0.0205 ± 0.013	0.006 ± 0.0057	-0.0075 ± 0.043	-0.057 ± 0.024	-0.137 ± 0.085	-0.0265 ± 0.042	-0.0415 ± 0.0092	-0.0725 ± 0.04	0.011 ± 0.024	-0.0245 ± 0.036	-0.119 ± 0.0064	-0.251	-0.0405 ± 0.019	-0.0515 ± 0.023	-0.043 ± 0.013	-0.101 ± 0.045
MyoF:SRB	-0.012	-0.0445 ± 0.0021	-0.0225 ± 0.022	-0.0395 ± 0.0035	-0.0055 ± 0.0078	-0.016 ± 0.0042	-0.0725 ± 0.019	0 ± 0.0014	-0.001 ± 0.0028	-0.0095 ± 0.0092	0.0005 ± 0.011	0.01 ± 0.011	-0.048 ± 0.014	-0.209	-0.0075 ± 0.011	-0.004 ± 0.0071	-0.007 ± 0.0057	-0.0185 ± 0.013
HDF3CGF:Proliferation 72hr	-0.183 ± 0.044	-0.39 ± 0.05	-0.38 ± 0.0092	-0.485 ± 0.005	-0.072 ± 0.079	-0.454 ± 0.021	-0.666 ± 0.15	-0.011 ± 0.0099	-0.026 ± 0.044	-0.154 ± 0.076	0.058 ± 0.065	0.124 ± 0.018	0.119 ± 0.021	-0.919	-0.009 ± 0.068	0.119 ± 0.021	0.191 ± 0.03	-0.567 ± 0.013
CASM3C:CD142/Tissue Factor	-0.0515 ± 0.022	-0.0235 ± 0.06	-0.144 ± 0.013	-0.105 ± 0.021	0.0345 ± 0.026	-0.003 ± 0.061	-0.016 ± 0.0014	-0.036 ± 0.021	-0.047 ± 0.05	-0.0145 ± 0.032	0.005 ± 0.028	-0.009 ± 0.025	-0.01 ± 0.024	0.001	-0.0165 ± 0.0064	-0.007 ± 0.014	-0.033 ± 0.0071	-0.004 ± 0.059
CASM3C:IL-6	-0.0045 ± 0.025	0.033 ± 0.0085	-0.006 ± 0.028	-0.068 ± 0.013	-0.036 ± 0.042	0.0085 ± 0.074	-0.031 ± 0.047	-0.023 ± 0.0099	-0.017 ± 0.027	0.0105 ± 0.05	-0.0035 ± 0.025	-0.024 ± 0.048	-0.018 ± 0.05	-0.063	-0.0285 ± 0.005	-0.0425 ± 0.018	-0.0095 ± 0.025	-0.0735 ± 0.15
CASM3C:LDLR	-0.067 ± 0.0014	-0.0505 ± 0.018	-0.044 ± 0.025	-0.079 ± 0.033	-0.0545 ± 0.026	0.0515 ± 0.042	0.0355 ± 0.063	-0.008 ± 0.011	-0.0135 ± 0.011	-0.002 ± 0.0099	-0.0015 ± 0.018	0 ± 0.031	0.0085 ± 0.039	-0.028	-0.011 ± 0.017	-0.0115 ± 0.0092	-0.0135 ± 0.0092	0.001 ± 0.028
MyoF:CXCL8/IL-8	0.0295 ± 0.005	0.0265 ± 0.012	-0.0155 ± 0.0078	0.016 ± 0.018	-0.024 ± 0.031	-0.006 ± 0.03	0.0205 ± 0.013	-0.003 ± 0.02	0.008 ± 0.018	0.029 ± 0.0057	0.019 ± 0.011	0.004 ± 0.017	0.036 ± 0.065	0.153	-0.013 ± 0.013	0.018 ± 0.018	0.0795 ± 0.018	-0.049 ± 0.035
